Source: patent publication US12486264B2, “Bicyclic HPK1 inhibitors” (Janssen Pharmaceutica NV, priority 2019, dated 2025)
One block for each molecule: values may come before it.

Assays:
Hpk1 = target: T1, Hpk1 (Homo sapiens, UniProt Q92918); experiment: SLP76 phosphorylation assay (HEK293 cells expressing Hpk1 and SLP76); assay type: cell-based; details: SLP76 phosphorylation at S376, HEK293 cells expressing Hpk1 and SLP76, 4 hours incubation; for IC50: read-out: pSLP76 (HEK293) (pIC50) (converted)
T1 construct: expressed in transfected cells; host or cells: HEK293 cells engineered to express Hpk1 and SLP76
T1 sequence (Q92918 whole entry): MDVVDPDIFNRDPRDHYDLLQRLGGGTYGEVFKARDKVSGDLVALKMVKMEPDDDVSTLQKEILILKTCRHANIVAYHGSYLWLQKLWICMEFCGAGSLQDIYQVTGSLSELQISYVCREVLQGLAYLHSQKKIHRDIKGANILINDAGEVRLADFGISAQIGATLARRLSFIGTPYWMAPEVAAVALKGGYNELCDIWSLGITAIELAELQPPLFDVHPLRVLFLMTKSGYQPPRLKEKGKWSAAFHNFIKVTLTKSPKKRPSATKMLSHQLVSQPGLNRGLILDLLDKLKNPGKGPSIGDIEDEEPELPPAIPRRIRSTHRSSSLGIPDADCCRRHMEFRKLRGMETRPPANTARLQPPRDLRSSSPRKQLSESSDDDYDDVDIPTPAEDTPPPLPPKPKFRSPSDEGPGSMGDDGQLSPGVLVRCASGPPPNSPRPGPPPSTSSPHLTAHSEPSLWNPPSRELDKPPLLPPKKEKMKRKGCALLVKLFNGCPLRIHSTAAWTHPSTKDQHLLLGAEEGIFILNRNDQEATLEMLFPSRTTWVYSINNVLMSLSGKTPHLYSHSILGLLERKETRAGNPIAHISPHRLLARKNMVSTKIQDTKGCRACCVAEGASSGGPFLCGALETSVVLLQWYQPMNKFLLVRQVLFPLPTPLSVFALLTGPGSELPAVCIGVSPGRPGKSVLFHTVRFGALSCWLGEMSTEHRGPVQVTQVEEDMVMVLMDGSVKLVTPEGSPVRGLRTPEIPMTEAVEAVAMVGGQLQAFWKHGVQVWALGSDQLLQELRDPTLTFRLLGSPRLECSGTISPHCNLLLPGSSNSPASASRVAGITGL
Procedure: Hpk1 inhibition in cells was determined by detection of SLP76 phosphorylation at S376 in lysates from HEK293 cells engineered to express Hpk1 and SLP76. Serial dilutions of test compounds were prepared in cell culture medium and 20 μl was transferred into each well of a 96-well plate containing HEK293 cells in 180 μl of culture medium. After incubation for 4 hours at 37° C./5% CO2, the culture medium was removed, plates were put on ice and cells washed with cold Minimal Essential Medium before lysing in 90 μl of cold Mammalian Protein Extraction Reagent (Thermo Scientific, 78501) for 30 minutes on ice. The cell lysates were transferred to another 96-well plate, centrifuged 10 minutes at 3000 rcf (4° C.) and 30 μl transferred to a 96-well High-bind plate (MSD, L15XB-3). After coating overnight at 4° C., the cell lysate was removed, wells were washed with base buffer (TBS, 0.2% Tween-20), and blocking solution (base buffer containing 3% MSD blocker A) was added to each well for 1 hour at room temperature. The blocking solution was removed, the wells were washed with base buffer, and detection antibody (SLP76 pS376) was added in 25 μl base buffer containing 1% MSD blocker A to each well. After a 2 h incubation at room temperature, the detection antibody was removed, wells were washed four times with base buffer, 25 μl SULFO-TAG labeled goat anti-rabbit secondary antibody (MSD, R32AB-1) in base buffer containing 1% MSD blocker A was added to each well and left for 1 hour at room temperature. Wells were washed 4 times with base buffer, 150 μl Read Buffer T was added to each well, and the plates were read in a Mesoscale plate reader (MSD). IC50 values were determined by curve-fitting the electrochemiluminescent signals obtained from the lysates of HEK293 cells expressing Hpk1 and SLP76 treated with test compounds at various concentrations minus the signal obtained from HEK293 cells expressing SLP76 only.

full-length human Hpk1 = target: T2, full-length human Hpk1 (Homo sapiens, UniProt Q92918); experiment: HPK1 kinase assay (ADP Glo); assay type: biochemical; details: GST-Hpk1, 75 μM ATP solution added, ADP Glo luminescence; for IC50: read-out: Hpk1 biochemical (pIC50) (converted)
T2 construct: full-length human Hpk1 with an N-terminal Glutatione S-transferase (GST) tag; GST (N); made in house; host or cells: baculovirus/insect cell expression system
T2 sequence (Q92918 whole entry): as above
Procedure: A recombinant fusion protein consisting of full-length human Hpk1 with an N-terminal Glutatione S-transferase (GST) tag was produced in a baculovirus/insect cell expression system. GST-Hpk1 protein was purified from cell lysates by glutathione sepharose affinity chromatography. Kinase inhibition was determined using the ADP Glo™ Kinase Assay kit (Promega, V9101). Test compounds were prepared by serial dilution in dimethyl sulfoxide (DMSO) and 0.1 μl of each dilution was spotted onto a 384-well white Proxiplate (Perkin Elmer, 6008289). 8 μl of kinase assay buffer (40 mM Tris pH 7.5, 2 mM dithiothreitol (DTT), 0.05% Bovine Serum Albumin, 5 mM MgCl2) containing Hpk1 protein was transferred to each well and incubated for 30-45 minutes at room temperature. The enzymatic reaction was started by adding 2 μl of kinase assay buffer containing 75 μM ATP. After 120 minutes, the reaction was stopped by adding 3 μl of ADP Glo™ reagent (Promega, V9101) and incubating 45 minutes at room temperature.

SMILES: N#Cc1c[nH]c2ncc(-c3ccc(C4CCOCC4)c(C4CCCN4)c3)cc12 (stereo not shown) [Co. 3]
- IC50 (Hpk1): 257 nM
- IC50 (full-length human Hpk1): 3.16 nM

SMILES: N#CCc1c[nH]c2ncc(-c3ccc(C4CCOCC4)c([C@@H]4CCCN4)c3)cc12 [Co. 4]
- IC50 (Hpk1): 120 nM
- IC50 (full-length human Hpk1): 11.2 nM

SMILES: Cc1cc2cc(-c3ccc(C4CCOCC4)c(C4CCCN4)c3)cnc2[nH]1 (stereo not shown) [Co. 2]
- IC50 (Hpk1): 6760 nM
- IC50 (full-length human Hpk1): 145 nM

SMILES: c1coc(CNCc2c[nH]c3ncc(-c4ccc(C5CCOCC5)c(C5CCCN5)c4)cc23)n1 (stereo not shown) [Co. 35]
- IC50 (Hpk1): 3020 nM
- IC50 (full-length human Hpk1): 22.9 nM

SMILES: CC(C)C(CO)CNC(c1c[nH]c2ncc(-c3ccc(C4CCOCC4)c(CN(C)C)c3)cc12)C(F)(F)F (stereo not shown) [Co. 36]
- IC50 (Hpk1): 2630 nM
- IC50 (full-length human Hpk1): 40.7 nM

SMILES: CN(C)Cc1cc(-c2cnc3[nH]cc(C(NCc4ncco4)C(F)(F)F)c3c2)ccc1C1CCOCC1 (stereo not shown) [Co. 37]
- IC50 (Hpk1): 1660 nM
- IC50 (full-length human Hpk1): 21.9 nM

SMILES: Cc1c[nH]c2ncc(-c3ccc(C4CCOCC4)c([C@@H]4COCCN4)c3)cc12 [Co. 8]
- IC50 (Hpk1): 112 nM
- IC50 (full-length human Hpk1): 4.47 nM

SMILES: Cc1nnc(CNC(=O)c2c[nH]c3ncc(-c4ccc(C5CCOCC5)c(CN(C)C)c4)cc23)o1 [Co. 21]
- IC50 (Hpk1): 9550 nM
- IC50 (full-length human Hpk1): 33.9 nM

SMILES: Cc1nc(CNC(=O)c2c[nH]c3ncc(-c4ccc(C5CCOCC5)c(CN(C)C)c4)cc23)no1 [Co. 22]
- IC50 (Hpk1): 6460 nM
- IC50 (full-length human Hpk1): 58.9 nM

SMILES: CC(C)C(CO)CNCc1c[nH]c2ncc(-c3ccc(C4CCOCC4)c(CN(C)C)c3)cc12 (stereo not shown) [Co. 34]
- IC50 (Hpk1): > 10000 nM
- IC50 (full-length human Hpk1): 324 nM

SMILES: Cc1c[nH]c2ncc(-c3ccc(C4CCOCC4)c([C@@H]4CCCN4)c3)cc12 [Co. 1]
- IC50 (Hpk1): 288 nM
- IC50 (full-length human Hpk1): 1.86 nM

SMILES: CN(C)Cc1cc(-c2cnc3[nH]cc(C(=O)NCCNC(=O)C(F)F)c3c2)ccc1C1CCOCC1 [Co. 29]
- IC50 (Hpk1): 1550 nM
- IC50 (full-length human Hpk1): 12.3 nM

SMILES: CN(C)Cc1cc(-c2cnc3[nH]cc(C(=O)NCc4nccn4C)c3c2)ccc1C1CCOCC1 [Co. 20a]
- IC50 (Hpk1): 6920 nM
- IC50 (full-length human Hpk1): 28.2 nM

SMILES: c1cc2cc(-c3ccc(C4CCOCC4)c(C4CCCN4)c3)cnc2[nH]1 (stereo not shown) [Co. 6]
- IC50 (Hpk1): 389 nM
- IC50 (full-length human Hpk1): 30.2 nM

Results, then the molecule that gave them:

- IC50 (Hpk1): 1580 nM
- IC50 (full-length human Hpk1): 66.1 nM
SMILES: CC(=O)N(C)CCNC(=O)c1c[nH]c2ncc(-c3ccc(C4CCOCC4)c(CN(C)C)c3)cc12 [Co. 32]

- IC50 (Hpk1): 2140 nM
- IC50 (full-length human Hpk1): 15.8 nM
SMILES: COCC(C)(O)CNC(=O)c1c[nH]c2ncc(-c3ccc(C4CCOCC4)c(CN(C)C)c3)cc12 (stereo not shown) [Co. 30]

- IC50 (Hpk1): 257 nM
- IC50 (full-length human Hpk1): 3.39 nM
SMILES: CC(C)[C@H](CO)CNC(=O)c1c[nH]c2ncc(-c3ccc(C4CCOCC4)c(CN(C)C)c3)cc12 (single isomer, unassigned) [Co. 31a]

- IC50 (Hpk1): 7240 nM
- IC50 (full-length human Hpk1): 93.3 nM
SMILES: CN(C)Cc1cc(-c2cnc3[nH]cc(C(=O)N(C)C)c3c2)ccc1C1CCOCC1 [Co. 20b]

- IC50 (Hpk1): 263 nM
- IC50 (full-length human Hpk1): 2.88 nM
SMILES: CN(C)Cc1cc(-c2cnc3[nH]cc(C(=O)N[C@@H]4CCC[C@@H]4O)c3c2)ccc1C1CCOCC1 [Co. 18]

- IC50 (Hpk1): 759 nM
- IC50 (full-length human Hpk1): 12 nM
SMILES: CN(C)Cc1cc(-c2cnc3[nH]cc(C(=O)NCC(CO)C4CC4)c3c2)ccc1C1CCOCC1 (stereo not shown) [Co. 13]

- IC50 (Hpk1): 3550 nM
- IC50 (full-length human Hpk1): 21.9 nM
SMILES: CC(C)C(O)CNC(=O)c1c[nH]c2ncc(-c3ccc(C4CCOCC4)c(CN(C)C)c3)cc12 (stereo not shown) [Co. 11]

- IC50 (Hpk1): 575 nM
- IC50 (full-length human Hpk1): 5.75 nM
SMILES: CN(C)Cc1cc(-c2cnc3[nH]cc(C(=O)NCC(C)(C)O)c3c2)ccc1C1CCOCC1 [Co. 12]

- IC50 (Hpk1): 4270 nM
- IC50 (full-length human Hpk1): 38.9 nM
SMILES: CN(C)Cc1cc(-c2cnc3[nH]cc(C(=O)NCC4CCC(=O)N4C)c3c2)ccc1C1CCOCC1 (stereo not shown) [Co. 26]

- IC50 (Hpk1): > 10000 nM
- IC50 (full-length human Hpk1): 53.7 nM
SMILES: CN(C)Cc1cc(-c2cnc3[nH]cc(C(=O)NCC4(CO)COC4)c3c2)ccc1C1CCOCC1 [Co. 16]

- IC50 (Hpk1): 1320 nM
- IC50 (full-length human Hpk1): 26.3 nM
SMILES: CC(C)[C@@H](CO)CNC(=O)c1c[nH]c2ncc(-c3ccc(C4CCOCC4)c(CN(C)C)c3)cc12 (single isomer, unassigned) [Co. 31b]

- IC50 (Hpk1): 380 nM
- IC50 (full-length human Hpk1): 7.94 nM
SMILES: CN(C)Cc1cc(-c2cnc3[nH]cc(C(=O)NCC4(CO)CC4)c3c2)ccc1C1CCOCC1 [Co. 15]

- pSLP76 (HEK293) (pIC50) (Hpk1): 5.94
- Hpk1 biochemical (pIC50) (full-length human Hpk1): 7.93
SMILES: CC(CO)CNC(=O)c1c[nH]c2ncc(-c3ccc(C4CCOCC4)c(CN(C)C)c3)cc12 (stereo not shown) [Co. 27]

- IC50 (Hpk1): 1020 nM
- IC50 (full-length human Hpk1): 10.2 nM
SMILES: CN(C)Cc1cc(-c2cnc3[nH]cc(C(=O)NCc4ncco4)c3c2)ccc1C1CCOCC1 [Co. 19]

- IC50 (Hpk1): > 10000 nM
- IC50 (full-length human Hpk1): 9.12 nM
SMILES: CN(C)Cc1cc(-c2cnc3[nH]cc(C(=O)NS(=O)(=O)C4CC4)c3c2)ccc1C1CCOCC1 [Co. 33]

- IC50 (Hpk1): 1580 nM
- IC50 (full-length human Hpk1): 10.5 nM
SMILES: CN(C)Cc1cc(-c2cnc3[nH]cc(C(=O)NCC4(O)CCCC4)c3c2)ccc1C1CCOCC1 [Co. 23]

- IC50 (Hpk1): 1550 nM
- IC50 (full-length human Hpk1): 4.47 nM
SMILES: CN(C)Cc1cc(-c2cnc3[nH]cc(C(=O)NCc4nccs4)c3c2)ccc1C1CCOCC1 [Co. 24]

- IC50 (Hpk1): 251 nM
- IC50 (full-length human Hpk1): 3.8 nM
SMILES: CN(C)Cc1cc(-c2cnc3[nH]cc(C(=O)NCC4(CO)CCCC4)c3c2)ccc1C1CCOCC1 [Co. 17]
